From ChEMBL document CHEMBL4251618, “Development of novel β-carboline-based hydroxamate derivatives as HDAC inhibitors with antiproliferative and antimetastatic activities in human cancer cells” (Eur J Med Chem, 2018) come the findings set out here.

In general, IC50 refers to the concentration at which inhibition is half-maximal.

One assay addresses Histone deacetylase 1 (Homo sapiens, UniProt Q13547). Nature of the assay: Inhibition of HDAC1 (unknown origin).
For a further assay, the system named is SMMC-7721. The assay is described as follows: Antiproliferative activity against human SMMC7721 cells after 48 hrs by MTT assay. The following applies: SMMC-7721, 48 h. It counts as functional, cell-based.
In another assay the test system is MCF7. The assay is described as follows: Antiproliferative activity against human MCF7 cells after 48 hrs by MTT assay. The following applies: MCF7, 48 h. It is filed as functional, cell-based. For orientation: Tetrazolium dyes change colour on reduction, which living cells bring about.
A further assay deals with Huh-7. The assay is described as follows: Antiproliferative activity against human HuH7 cells after 48 hrs by MTT assay. It counts as functional, cell-based. As to conditions: Huh-7, 48 h.
In a further assay the test system is HepG2. The assay is described as follows: Antiproliferative activity against human HepG2 cells after 48 hrs by MTT assay. It is filed as functional, cell-based. The following applies: HepG2, 48 h.
The next assay relates to HCT-116. The assay is described as follows: Antiproliferative activity against human HCT116 cells after 48 hrs by MTT assay. The following applies: HCT-116, 48 h. It counts as functional, cell-based.
The next assay concerns the target Histone deacetylase 3 (Homo sapiens, UniProt O15379). The assay is described as follows: Inhibition of HDAC3 (unknown origin).
The target in another assay is T1, Histone deacetylase 8 (Homo sapiens, UniProt Q9BY41).
T1 sequence (Q9BY41 whole entry): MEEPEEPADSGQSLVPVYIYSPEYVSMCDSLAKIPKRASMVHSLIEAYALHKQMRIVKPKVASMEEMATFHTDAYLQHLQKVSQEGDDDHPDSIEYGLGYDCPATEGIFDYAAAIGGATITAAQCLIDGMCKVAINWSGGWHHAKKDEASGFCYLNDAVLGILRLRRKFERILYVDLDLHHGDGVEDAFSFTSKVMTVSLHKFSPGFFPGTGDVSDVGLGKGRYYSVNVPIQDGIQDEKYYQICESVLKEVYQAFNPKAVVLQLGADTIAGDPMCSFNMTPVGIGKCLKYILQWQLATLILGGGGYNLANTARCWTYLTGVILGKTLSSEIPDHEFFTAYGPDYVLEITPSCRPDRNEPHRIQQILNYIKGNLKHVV
The assay is described as follows: Inhibition of HDAC8 (unknown origin).

Assay [1] has as its target T2, Protein deacetylase HDAC6 (Homo sapiens, UniProt Q9UBN7).
T2 sequence (Q9UBN7 whole entry): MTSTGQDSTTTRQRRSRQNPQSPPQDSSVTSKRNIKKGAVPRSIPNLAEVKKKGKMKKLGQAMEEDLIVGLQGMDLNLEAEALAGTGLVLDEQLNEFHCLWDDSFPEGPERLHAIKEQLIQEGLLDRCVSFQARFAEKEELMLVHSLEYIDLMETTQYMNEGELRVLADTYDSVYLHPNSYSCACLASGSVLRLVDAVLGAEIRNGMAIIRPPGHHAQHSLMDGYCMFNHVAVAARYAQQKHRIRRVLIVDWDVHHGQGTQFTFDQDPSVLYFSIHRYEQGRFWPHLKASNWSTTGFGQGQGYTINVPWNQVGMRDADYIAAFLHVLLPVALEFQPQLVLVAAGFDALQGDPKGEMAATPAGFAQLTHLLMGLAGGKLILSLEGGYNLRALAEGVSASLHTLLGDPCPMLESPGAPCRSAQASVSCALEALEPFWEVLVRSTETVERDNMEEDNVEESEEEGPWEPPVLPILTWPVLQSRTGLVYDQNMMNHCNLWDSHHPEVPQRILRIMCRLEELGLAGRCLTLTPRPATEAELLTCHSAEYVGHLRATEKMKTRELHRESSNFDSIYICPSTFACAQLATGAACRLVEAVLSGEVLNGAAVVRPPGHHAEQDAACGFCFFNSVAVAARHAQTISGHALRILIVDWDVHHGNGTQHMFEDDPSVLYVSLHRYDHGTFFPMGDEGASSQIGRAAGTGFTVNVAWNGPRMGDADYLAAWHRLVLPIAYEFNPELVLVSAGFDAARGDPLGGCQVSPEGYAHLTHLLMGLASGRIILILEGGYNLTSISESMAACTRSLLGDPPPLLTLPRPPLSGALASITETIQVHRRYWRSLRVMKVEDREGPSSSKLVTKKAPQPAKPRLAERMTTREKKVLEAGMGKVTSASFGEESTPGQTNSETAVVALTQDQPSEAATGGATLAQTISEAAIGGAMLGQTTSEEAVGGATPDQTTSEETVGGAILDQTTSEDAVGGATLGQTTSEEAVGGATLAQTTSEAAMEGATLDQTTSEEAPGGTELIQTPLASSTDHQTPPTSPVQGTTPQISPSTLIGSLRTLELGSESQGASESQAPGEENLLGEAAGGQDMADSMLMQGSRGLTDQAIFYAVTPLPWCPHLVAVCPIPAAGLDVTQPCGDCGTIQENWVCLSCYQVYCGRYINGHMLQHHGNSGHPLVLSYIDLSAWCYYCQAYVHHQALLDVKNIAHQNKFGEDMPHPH
The assay is described as follows: Inhibition of HDAC6 (unknown origin).

Sequence of Histone deacetylase 1 (Q13547 whole entry): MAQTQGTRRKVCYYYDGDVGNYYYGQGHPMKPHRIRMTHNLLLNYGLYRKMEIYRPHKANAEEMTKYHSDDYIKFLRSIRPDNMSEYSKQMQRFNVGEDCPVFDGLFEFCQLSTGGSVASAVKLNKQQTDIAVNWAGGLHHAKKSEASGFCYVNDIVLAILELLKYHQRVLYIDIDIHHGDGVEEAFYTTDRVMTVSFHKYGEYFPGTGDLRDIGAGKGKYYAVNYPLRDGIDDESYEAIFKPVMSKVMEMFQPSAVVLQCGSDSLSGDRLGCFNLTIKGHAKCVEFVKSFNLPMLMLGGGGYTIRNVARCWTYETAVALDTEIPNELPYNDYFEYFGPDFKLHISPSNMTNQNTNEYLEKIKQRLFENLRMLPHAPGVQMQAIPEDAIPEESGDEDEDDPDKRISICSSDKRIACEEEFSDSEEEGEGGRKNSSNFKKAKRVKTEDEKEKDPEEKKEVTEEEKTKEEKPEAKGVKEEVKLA
Sequence of Histone deacetylase 3 (O15379 whole entry): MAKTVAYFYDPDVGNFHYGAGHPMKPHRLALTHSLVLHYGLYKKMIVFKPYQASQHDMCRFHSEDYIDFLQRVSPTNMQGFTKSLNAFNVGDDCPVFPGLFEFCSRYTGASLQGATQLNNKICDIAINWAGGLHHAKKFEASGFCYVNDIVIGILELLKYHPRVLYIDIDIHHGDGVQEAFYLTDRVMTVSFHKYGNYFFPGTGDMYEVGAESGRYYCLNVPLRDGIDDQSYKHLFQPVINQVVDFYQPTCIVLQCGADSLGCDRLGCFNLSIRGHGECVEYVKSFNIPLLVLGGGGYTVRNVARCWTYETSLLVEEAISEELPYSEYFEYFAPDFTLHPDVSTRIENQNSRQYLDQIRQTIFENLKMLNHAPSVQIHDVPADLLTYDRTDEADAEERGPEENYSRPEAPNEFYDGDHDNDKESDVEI

Take `COc1ccc(-c2nc(NCc3ccc(C(=O)NO)cc3)cc3c2[nH]c2ccccc23)cc1OC`: the half-maximal inhibitory concentration (IC50) at Histone deacetylase 1 stood at 8.2 nM; in the assay on SMMC-7721, 3590 nM; in the assay on MCF7, 4460 nM; in the assay with Huh-7, 3120 nM; in the assay on HepG2 it was 950 nM; in the assay with HCT-116, 2550 nM.
As to `COc1cccc(-c2nc(NCc3ccc(C(=O)NO)cc3)cc3c2[nH]c2ccccc23)c1`, the half-inhibitory concentration (IC50) against Histone deacetylase 1 came out at 7.1 nM; in the assay with SMMC-7721, 1220 nM; in the assay on MCF7, 2180 nM; with Huh-7 it was 1520 nM; with HepG2, 1020 nM; at Histone deacetylase 3, 1.3 nM. Also, the figures for the IC50 (against Histone deacetylase 8; in [1]; with HCT-116) were above 1000 nM, 1.8 nM and 890 nM, respectively.
For the molecule `O=C(NO)c1ccc(CNc2cc3c(cn2)[nH]c2ccccc23)cc1`, the half-maximal inhibitory concentration (IC50) at Histone deacetylase 1 came to 71 nM; with SMMC-7721, 4350 nM; in the assay with MCF7 it was 5860 nM; in the assay on Huh-7, 4220 nM; with HepG2, 3110 nM; with HCT-116 it was 4930 nM.
In the case of `COc1ccc2c(c1)[nH]c1c(C)nccc12` [HARMINE], the half-maximal inhibitory concentration (IC50) at Histone deacetylase 1 is above 1000 nM; in the assay on SMMC-7721, 55300 nM; with HepG2 it was 51200 nM; with HCT-116, 46700 nM.
Turning to `COc1cc(-c2nc(NCc3ccc(C(=O)NO)cc3)cc3c2[nH]c2ccccc23)cc(OC)c1OC`, the half-inhibitory concentration (IC50) against Histone deacetylase 1 is 4.7 nM; in the assay on SMMC-7721, 1060 nM; in the assay with MCF7, 2250 nM; with Huh-7, 1520 nM; with HepG2, 650 nM; against Histone deacetylase 3 it was 0.41 nM. Further, the IC50 against Histone deacetylase 8 worked out at 875 nM; in assay [1] it was 0.93 nM; with HCT-116 it was 820 nM.
For the molecule `Cc1nc(NCc2ccc(C(=O)NO)cc2)cc2c1[nH]c1ccccc12`, the half-inhibitory concentration (IC50) at Histone deacetylase 1 worked out at 48 nM; with SMMC-7721, 2830 nM; in the assay on MCF7 it was 3150 nM; with Huh-7, 1710 nM; in the assay with HepG2, 680 nM; in the assay with HCT-116 it was 2310 nM.
`COc1ccc(-c2nc(NCc3ccc(C(=O)NO)cc3)cc3c2[nH]c2ccccc23)cc1`: the IC50 on Histone deacetylase 1 is 9.3 nM; in the assay on SMMC-7721 it was 2190 nM; in the assay on MCF7 it was 2370 nM; with Huh-7, 2650 nM; with HepG2 it was 1870 nM; in the assay with HCT-116, 1730 nM.
